Assay results published in ChEMBL document CHEMBL4814055, “Design, synthesis and molecular modeling studies of novel mesalamine linked coumarin for treatment of inflammatory bowel disease” (Bioorg Med Chem Lett, 2021).
Activity calls are given as the source filed them. No cut-off for these calls is given here.

Assays:
Rattus norvegicus [1] = experiment: Anti-ulcerative colitis activity in acetic acid-induced ulcerative colitis Wistar rat model assessed as body weight recovery measured as body weight gain at 400 mg/kg, po administrated for 14 days relative to control; format: functional; settings: time 14 day
Rattus norvegicus [2] = experiment: Anti-ulcerative colitis activity in acetic acid-induced ulcerative colitis Wistar rat model assessed as restoration of normal stool consistency at 400 mg/kg, po administrated for 14 days and measured during initial 4-5 days of treatment; format: functional, organism-based; settings: time 4-5 day
Rattus norvegicus [3] = experiment: Anti-ulcerative colitis activity in acetic acid-induced ulcerative colitis Wistar rat model assessed as decrease in bleeding at 400 mg/kg, po administrated for 14 days and measured during initial 4-5 days of treatment; format: functional, organism-based; settings: time 4-5 day
Rattus norvegicus [4] = experiment: Anti-ulcerative colitis activity in acetic acid-induced ulcerative colitis Wistar rat model assessed as reduction in diarrhea at 400 mg/kg, po administrated for 14 days and measured during initial 5 to 6 days of treatment; format: functional, organism-based; settings: time 5-6 day
Rattus norvegicus [5] = experiment: Anti-ulcerative colitis activity in acetic acid-induced ulcerative colitis Wistar rat model assessed as reduction in acetic acid-induced oxidative stress by measuring increase in SOD level in colon at 400 mg/kg, po administrated for 14 days by UV spectrophotometric analysis; format: functional, organism-based; settings: time 14.0 day
[6] = Toxicity in albino rat assessed as toxic symptoms at 300 mg/kg observed for 14 days; format: organism-based; settings: in vivo, 336 h, time 14 day
[7] = Toxicity in albino rat assessed as toxic signs at 300 mg/kg observed for 14 days; format: organism-based; settings: in vivo, 336 h, time 14 day
Rattus norvegicus [8] = experiment: Anti-ulcerative colitis activity in acetic acid-induced ulcerative colitis Wistar rat model assessed as reduction in onset of diarrhea at 400 mg/kg, po administrated for 14 days and measured during initial 8 to 9 days of treatment; format: functional, organism-based; settings: time 8-9 day
[9] = Toxicity in albino rat assessed as lethality at 2000 mg/kg; format: organism-based; settings: in vivo
Rattus norvegicus [10] = experiment: Anti-ulcerative colitis activity in acetic acid-induced ulcerative colitis Wistar rat model assessed as reduction in acetic acid-induced lipid peroxidation by measuring reduction in MDA level in colon at 400 mg/kg, po administrated for 14 days; format: functional, organism-based; settings: time 14.0 day
Rattus norvegicus [11] = experiment: Anti-ulcerative colitis activity in acetic acid-induced ulcerative colitis Wistar rat model assessed as normal mucosa without cryptic loss in colon at 400 mg/kg, po administrated for 14 days by microscopic analysis; format: functional, organism-based; settings: time 14.0 day
[12] = Toxicity in albino rat assessed as behavioral changes at 300 mg/kg observed for 14 days; format: organism-based; settings: in vivo, 336 h, time 14 day
Rattus norvegicus [13] = experiment: Anti-ulcerative colitis activity in acetic acid-induced ulcerative colitis Wistar rat model assessed as reduction in blood content in feces without change in feces colour at 400 mg/kg, po administrated for 14 days; format: functional, organism-based; settings: time 14.0 day
Rattus norvegicus [14] = experiment: Anti-ulcerative colitis activity in acetic acid-induced ulcerative colitis Wistar rat model assessed as change in stool uniformity at 400 mg/kg, po administrated for 14 days; format: functional, organism-based; settings: time 14.0 day
Rattus norvegicus [15] = experiment: Anti-ulcerative colitis activity in acetic acid-induced ulcerative colitis Wistar rat model assessed as reduction in blood content in feces with parrot green to green dotted colour at 400 mg/kg,po administrated for 14 days; format: functional, organism-based; settings: time 14.0 day
Rattus norvegicus [16] = experiment: Anti-ulcerative colitis activity in acetic acid-induced ulcerative colitis Wistar rat model assessed as reduction in sub-mucosal edema in colon at 400 mg/kg, po administrated for 14 days by microscopic analysis; format: functional, organism-based; settings: time 14.0 day
Rattus norvegicus [17] = experiment: Anti-ulcerative colitis activity in acetic acid-induced ulcerative colitis Wistar rat model assessed as mild deformation of mucosal layer with disruption of epithelium in colon at 400 mg/kg, po administrated for 14 days by microscopic analysis; format: functional, organism-based; settings: time 14.0 day
Rattus norvegicus [18] = experiment: Anti-ulcerative colitis activity in acetic acid-induced ulcerative colitis Wistar rat model assessed as reduction in damage of mucosa in colon at 400 mg/kg, po administrated for 14 days by microscopic analysis; format: functional, organism-based; settings: time 14.0 day
Rattus norvegicus [19] = experiment: Anti-ulcerative colitis activity in acetic acid-induced Wistar rat ulcerative colitis model assessed as reduction in infiltration of inflammatory cells in colon at 400 mg/kg, po administrated for 14 days by microscopic analysis; format: functional, organism-based; settings: time 14.0 day

## Cc1cc(=O)oc2c(/N=N/c3ccc(O)c(C(=O)O)c3)c(O)ccc12
Rattus norvegicus [1]
  Activity: 92%
Rattus norvegicus [2]
  Activity: Active
Rattus norvegicus [3]
  Activity: Active
Rattus norvegicus [4]
  Activity: Active
Rattus norvegicus [5]
  Activity: Active
[6]
  Activity: Non-Toxic
[7]
  Activity: Non-Toxic
Rattus norvegicus [8]
  Activity: Active
[9]
  Activity: Toxic
Rattus norvegicus [10]
  Activity: Active
Rattus norvegicus [11]
  Activity: Active
[12]
  Activity: Non-Toxic
Rattus norvegicus [13]
  Activity: Active
Rattus norvegicus [14]
  Activity: Active

## Nc1ccc(O)c(C(=O)O)c1 [MESALAMINE]
Rattus norvegicus [15]
  Activity: Active
Rattus norvegicus [16]
  Activity: Active
Rattus norvegicus [1]
  Activity: 88%
Rattus norvegicus [4]
  Activity: Active
Rattus norvegicus [5]
  Activity: Active
Rattus norvegicus [8]
  Activity: Active
Rattus norvegicus [10]
  Activity: Active
Rattus norvegicus [17]
  Activity: inactive
Rattus norvegicus [18]
  Activity: Active
Rattus norvegicus [19]
  Activity: Active
Rattus norvegicus [14]
  Activity: Active
